Patent publication US20140179655A1, “SOLID ORAL DOSAGE FORM OF TE[…]” (Solural Pharma ApS, priority 2012, published 2014)

Key:
[1] = Estimate of maximal amount of lymphatic absorbed TU; conditions: 25% of solubility x 120 mg/g x 3.5 g triglyceride/10 h; formulation of 600 mg fat
Description: The maximal amount of lymphatic absorbed TU can be estimated from the solubility of Testosterone Undecanoate in triglyceride and the transported triglyceride (Int. J. Pharm., vol. 34, 175-178, 1986).

[2] = cited from earlier work

CCCCCCCCCCC(=O)O[C@H]1CC[C@H]2[C@@H]3CCC4=CC(=O)CC[C@]4(C)[C@H]3CC[C@]12C [Testosterone Undecanoate]
maximal amount of lymphatic absorbed TU [1]: ~100 mg
solubility in triglyceride [2]: 120 mg/g
